Results published in patent publication US20240335429A1, “MOLECULAR GLUE AND SALL4 DEGRADER” (National University of Singapore, priority 2021, published 2024).

Key:
RBBP4 = assay: Immunoblot of RBBP4 in SNU-398 cells; type: cell-based, human; conditions: 16 μM, 24 h
Procedure: RIPA buffer containing freshly added protease inhibitors (2 mM PMSF) and protease inhibitor cocktail was used for cell lysis. The lysed cells were incubated for 10 min on ice and subsequently centrifuged at 4° C. for 10 min at 14,000 rpm. The protein concentrations of cell lysates were assessed using Bradford Assay as per manufacturer's instructions. The samples were denatured using 4× Sample buffer at 95° C. for 5 min. The samples were size resolved using polyacrylamide gel (8%) and Mini-PROTEAN Tetra Cell module. The size-resolved proteins were transferred onto PVDF via electroblotting using Mini Trans-Blot® module. The membrane was blocked using 5% BSA in TBST. The membrane was incubated with appropriate primary antibody (overnight) and secondary antibody (1 h). Immobilon Crescendo Western HRP substrate was used for signal development and images were acquired using darkroom development techniques.
26S proteasome complex and neddylation was inhibited by cotreating MG132 at 1 and 3 μM and MLN4924 at 10 and 15 μM for 18 h, 20 h, 24 h or 48 h with desired concentrations of QE-18-WG07 in SNU-398, H661 and SNU-182 cells. After 18 h or 24 h of treatment, cells were then lysed and subjected to further protein extraction and immunoblotting by following the protocol in Example 4. For caspase glo assay, 20 h of cotreatment was performed by following the protocol in Example 5. […]

SNU-182 cells = assay: CellTiter-Glo viability assay, SNU-182; type: cell-based; conditions: Homo sapiens, 72 h
Procedure: Cells were plated in RPMI culture media (40 μL) in 384-well white, flat-bottom plates (Corning) and incubated at 37° C. in a humidified atmosphere of 5% CO2 overnight. The numbers of cells per well were 1,500 for SNU-398 and SNU-182, 750 for SNU-387, SNU-449, SNU-475 and SNU-423, and 1,000 for H661 and H1299. After overnight incubation, 10 μL of drug (1% DMSO in RPMI) at designed concentrations were added to the cells. The cells were then incubated for 16, 24, 48, 72, or 96 h at 37° C. in a humidified atmosphere of 5% CO2 before CellTiter-Glo reagent (10 μL) was dispensed to the wells. The cells were incubated at room temperature for a minimum of 10 min. After that, luminescence readings were recorded by a Microplate Reader (PHERAstar or Tecan Infinite M200 Pro) according to the manufacturer's instruction for measuring the luminescence.

[1] = target: T1, SALL4B-Nluc in H1299 cells (Homo sapiens, UniProt Q96SW2+Q9UJQ4); assay: Dual-luciferase SALL4B reporter cellular assay (main screen), Nluc/Fluc ratio; type: cell-based
T1 construct: expressed in transfected cells
T1 sequence (Q9UJQ4 1-616 isoform Q9UJQ4-2): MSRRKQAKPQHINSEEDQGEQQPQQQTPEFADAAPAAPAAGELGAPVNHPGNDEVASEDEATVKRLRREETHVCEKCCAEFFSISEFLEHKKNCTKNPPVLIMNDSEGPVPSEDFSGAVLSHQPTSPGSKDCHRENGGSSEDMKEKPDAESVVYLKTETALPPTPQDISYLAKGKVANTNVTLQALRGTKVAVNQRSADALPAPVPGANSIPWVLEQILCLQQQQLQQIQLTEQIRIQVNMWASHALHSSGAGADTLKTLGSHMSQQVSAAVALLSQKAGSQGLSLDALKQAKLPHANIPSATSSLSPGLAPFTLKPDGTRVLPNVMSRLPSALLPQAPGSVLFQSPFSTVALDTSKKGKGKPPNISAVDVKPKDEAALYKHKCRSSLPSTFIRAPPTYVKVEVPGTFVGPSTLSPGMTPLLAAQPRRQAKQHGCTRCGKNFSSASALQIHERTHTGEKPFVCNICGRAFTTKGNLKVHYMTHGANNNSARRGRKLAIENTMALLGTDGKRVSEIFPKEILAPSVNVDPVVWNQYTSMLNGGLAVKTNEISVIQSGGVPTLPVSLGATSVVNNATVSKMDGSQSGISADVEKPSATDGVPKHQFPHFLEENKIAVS
T1 sequence (Q96SW2 whole entry): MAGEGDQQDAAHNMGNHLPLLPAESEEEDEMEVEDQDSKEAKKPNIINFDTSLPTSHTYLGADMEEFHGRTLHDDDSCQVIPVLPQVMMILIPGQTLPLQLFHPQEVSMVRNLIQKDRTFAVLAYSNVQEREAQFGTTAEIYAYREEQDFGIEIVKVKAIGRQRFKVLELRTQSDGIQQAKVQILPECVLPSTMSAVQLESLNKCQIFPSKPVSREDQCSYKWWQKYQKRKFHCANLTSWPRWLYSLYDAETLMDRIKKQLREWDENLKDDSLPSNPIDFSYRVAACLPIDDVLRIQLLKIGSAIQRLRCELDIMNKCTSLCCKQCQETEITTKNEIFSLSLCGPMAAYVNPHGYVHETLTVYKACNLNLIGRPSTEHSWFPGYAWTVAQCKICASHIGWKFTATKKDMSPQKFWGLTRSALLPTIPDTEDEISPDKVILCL
T1 sequence (Q16531 whole entry partner): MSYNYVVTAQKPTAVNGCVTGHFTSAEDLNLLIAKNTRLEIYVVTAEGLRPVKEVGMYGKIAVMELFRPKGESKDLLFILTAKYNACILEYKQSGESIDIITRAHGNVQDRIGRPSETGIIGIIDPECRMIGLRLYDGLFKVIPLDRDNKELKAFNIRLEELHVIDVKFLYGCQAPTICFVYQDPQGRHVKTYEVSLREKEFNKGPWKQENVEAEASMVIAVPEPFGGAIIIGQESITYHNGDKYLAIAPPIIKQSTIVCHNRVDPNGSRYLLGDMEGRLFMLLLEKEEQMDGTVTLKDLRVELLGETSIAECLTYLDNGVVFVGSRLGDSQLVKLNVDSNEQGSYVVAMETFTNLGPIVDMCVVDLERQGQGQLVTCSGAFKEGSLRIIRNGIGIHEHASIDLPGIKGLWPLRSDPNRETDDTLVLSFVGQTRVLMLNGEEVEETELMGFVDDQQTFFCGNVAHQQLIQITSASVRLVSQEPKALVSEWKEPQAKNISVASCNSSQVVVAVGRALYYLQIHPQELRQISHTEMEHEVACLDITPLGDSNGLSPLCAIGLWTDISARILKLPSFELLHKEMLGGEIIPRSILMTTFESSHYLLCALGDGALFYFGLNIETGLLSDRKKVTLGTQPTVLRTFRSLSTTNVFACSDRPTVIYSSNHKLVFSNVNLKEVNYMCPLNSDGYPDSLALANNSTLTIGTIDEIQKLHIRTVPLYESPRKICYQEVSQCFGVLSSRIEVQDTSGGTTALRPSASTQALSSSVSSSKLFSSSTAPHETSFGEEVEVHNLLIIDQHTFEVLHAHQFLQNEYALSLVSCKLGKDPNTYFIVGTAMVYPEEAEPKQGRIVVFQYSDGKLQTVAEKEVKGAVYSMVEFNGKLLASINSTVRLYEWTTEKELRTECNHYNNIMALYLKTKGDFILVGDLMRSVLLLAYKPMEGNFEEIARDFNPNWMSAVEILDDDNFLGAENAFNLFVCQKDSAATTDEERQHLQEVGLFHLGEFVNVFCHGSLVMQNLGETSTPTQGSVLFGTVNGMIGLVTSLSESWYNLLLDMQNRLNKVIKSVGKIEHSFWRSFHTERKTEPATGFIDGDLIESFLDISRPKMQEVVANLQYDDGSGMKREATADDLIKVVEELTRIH
Source text: SALL4A or SALL4B was cloned into the dual-luciferase plasmid (pLL3.7-EF1a-IRES-Gateway-nluc-2xHA-IRES2-fluc-hCL1-P2A-Puro from Prof. William G. Kaelin group) to create a stable cell line (H1299, SALL4 negative) that ectopically express the SALL4A or B-NanoLuc fusion protein. SALL4A or B fused to nanoluciferase (Nluc) was expressed in a multicistronic mRNA with control firefly luciferase (Fluc). The measurement of Nluc/Fluc ratio enabled the determination of SALL4 fusion protein degradation relative to the internal Fluc control, independent of effects on transcription (FIG. 1A-B).
The assay was performed as described in Example 1 except in a 1,536-well plate which allows HTS of thermal shift hits from the primary screen, searching for SALL4 small molecule binders that can degrade the oncogenic SALL4B isoform. H1299 cells that stably express SALL4A/B_Nluc_Fluc were seeded in a 1,536-well clear bottom white plate (Corning) at 2,000 cells per well in RPMI medium (6 μL) and grown overnight (16 h) at 37° C., 5% CO2. Cells were treated with 8 μM of compounds for 6 h. Nano-Glo® Dual-Luciferase® Reporter Assay System and Pherastar plate reader were used for measuring the luciferase signal, following the manufacturer's instruction. For data analysis, the Nanoluc luminescence is normalized to firefly luciferase reading and then compared to the DMSO control. The screen was performed in triplicates.
The inventors treated H1299 cells overexpressing SALL4B_Nluc and the HCC (SNU-398, SNU-182) and NSCLC cells (H661) with increasing concentrations of QE-18-WG07 and IMiDs, and assayed the SALL4B_Nluc, as well as the endogenous SALL4A and B levels by immunoblots described in Example 4.

For COc1ccccc1NC(=O)Nc1ccc([N+](=O)[O-])cc1O [QE-18-WG07], the “effect on the level of RBBP4” value (RBBP4) was “no observable effect”, the Emax at 1 µM (SNU-182 cells; achieved at 1 μM, read-out: maximum growth inhibition Emax) was 90 to 100% and the IC50 (SNU-182 cells; read-out: IC50 of cell viability) was 951 nM. For the same compound, the main screen readout ([1]; 8 μM, 6 h, H1299 cells overexpressing SALL4B fused with Nluc) was −31, the Dmax ([1]; NCI-H1299, SALL4B dual-luciferase reporter assay, 9 hours of treatment, read-out: maximum degradation (Dmax) of SALL4B_Nluc) was 75% and the “reduction in the amount of SALL4B protein” value ([1]; after 6 h of incubation in H1299 cells overexpressing SALL4B fused with Nluc) was 31%. The “SALL4B_Luc Reporter Assay % SALL4B Downregulation” value ([1]; normalized to DMSO control, mean ± SD (n = 3), 8 μM, 6 h treatment, H1299 cells) was 29.8 ± 1.8%.
